Read-outs that look alike come from different tables or passages of the source.
Experiments:
Type in all cases: cell-based
TRPML2 = molecular target: T1, TRPML2 (Homo sapiens, UniProt Q8IZK6); assay: Fluorescent TRPML2 assay (performed as for TRPML1, substituting the TRPML2 subtype)
T1 construct: expressed in transfected cells
T1 sequence (Q8IZK6 1-566): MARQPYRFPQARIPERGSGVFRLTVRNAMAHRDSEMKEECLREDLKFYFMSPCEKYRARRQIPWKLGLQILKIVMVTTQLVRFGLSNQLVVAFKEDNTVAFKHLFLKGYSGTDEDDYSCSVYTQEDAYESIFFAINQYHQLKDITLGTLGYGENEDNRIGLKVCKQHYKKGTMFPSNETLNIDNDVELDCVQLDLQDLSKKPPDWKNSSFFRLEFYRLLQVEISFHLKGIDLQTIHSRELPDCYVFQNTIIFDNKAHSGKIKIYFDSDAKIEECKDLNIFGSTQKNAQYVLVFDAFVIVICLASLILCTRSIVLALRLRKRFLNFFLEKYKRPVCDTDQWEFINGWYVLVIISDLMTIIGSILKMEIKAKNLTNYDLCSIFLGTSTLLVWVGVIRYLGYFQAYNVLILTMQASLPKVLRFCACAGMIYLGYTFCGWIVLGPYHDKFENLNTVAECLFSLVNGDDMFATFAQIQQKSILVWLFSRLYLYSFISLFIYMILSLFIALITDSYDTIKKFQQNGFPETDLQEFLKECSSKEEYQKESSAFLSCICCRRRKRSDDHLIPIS
Outline: (§1)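 Doxycycline-induced (0.5 ug/mL) HEK-293 Trex cells stably expressing surface-directed mutant channel were loaded with 1 micromolar Fluo4-AM, resuspended in Ringer's with 10 mM calcium and added to compound plates. Fluorescence (ex 480, em 540 nm) gave percent activity versus on-plate controls; EC50 by non-linear regression.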

TRPML3 = molecular target: T2, TRPML3 (Homo sapiens, UniProt Q8TDD5); assay: Fluorescent TRPML3 assay (performed as for TRPML1, substituting the TRPML3 subtype)
T2 construct: expressed in transfected cells
T2 sequence (Q8TDD5 1-553): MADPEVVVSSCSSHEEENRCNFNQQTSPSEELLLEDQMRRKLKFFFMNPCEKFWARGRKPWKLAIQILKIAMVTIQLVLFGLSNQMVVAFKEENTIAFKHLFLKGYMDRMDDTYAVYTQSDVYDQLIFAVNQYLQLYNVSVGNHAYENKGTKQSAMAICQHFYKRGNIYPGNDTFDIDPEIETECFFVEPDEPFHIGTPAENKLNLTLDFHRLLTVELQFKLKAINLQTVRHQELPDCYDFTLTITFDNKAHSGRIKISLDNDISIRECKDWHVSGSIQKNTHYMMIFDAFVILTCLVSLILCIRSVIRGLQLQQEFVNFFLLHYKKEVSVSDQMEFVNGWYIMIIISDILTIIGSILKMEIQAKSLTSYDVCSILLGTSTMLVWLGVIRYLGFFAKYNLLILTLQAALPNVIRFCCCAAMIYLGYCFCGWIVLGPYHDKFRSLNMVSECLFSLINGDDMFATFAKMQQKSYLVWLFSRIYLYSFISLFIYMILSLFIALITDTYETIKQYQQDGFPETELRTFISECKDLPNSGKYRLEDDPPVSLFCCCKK
Outline: as §1

TRPML1 = TRPML1 (Homo sapiens, UniProt Q9GZU1); assay: Fluorescent TRPML1 assay (Fluo4-AM calcium fluorescence in doxycycline-induced HEK-293 Trex cells)
Chain of TRPML1 (Q9GZU1 whole entry L15A/L16A/L577A/L578A, form open): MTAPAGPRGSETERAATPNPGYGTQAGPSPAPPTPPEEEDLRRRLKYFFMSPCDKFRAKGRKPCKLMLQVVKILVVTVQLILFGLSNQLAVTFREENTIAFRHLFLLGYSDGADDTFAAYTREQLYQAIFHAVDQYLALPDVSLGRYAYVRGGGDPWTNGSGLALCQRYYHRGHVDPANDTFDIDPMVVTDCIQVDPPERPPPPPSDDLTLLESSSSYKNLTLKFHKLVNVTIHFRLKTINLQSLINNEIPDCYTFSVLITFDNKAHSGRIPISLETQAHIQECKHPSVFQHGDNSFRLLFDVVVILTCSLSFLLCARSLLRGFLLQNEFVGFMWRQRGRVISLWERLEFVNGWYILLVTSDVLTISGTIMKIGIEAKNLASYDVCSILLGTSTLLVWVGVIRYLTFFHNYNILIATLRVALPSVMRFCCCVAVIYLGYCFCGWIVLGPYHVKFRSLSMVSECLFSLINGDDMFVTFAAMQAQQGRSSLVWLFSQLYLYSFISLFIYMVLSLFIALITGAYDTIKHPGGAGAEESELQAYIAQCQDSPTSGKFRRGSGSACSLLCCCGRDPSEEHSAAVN
Outline: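 HEK-293 Trex cells stably carrying human TRPML1 (surface-trafficking mutant) were induced overnight with 0.5 ug/mL doxycycline, loaded with 1 micromolar Fluo4-AM, and suspended in Ringer's with 10 mM calcium. Compounds at 20 micromolar to 6 nanomolar final, half-log steps, triplicate; fluorescence 480/540 nm gave percent activity versus controls and EC50 by non-linear regression.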

Row | EC50 (TRPML2; fluorescent calcium assay) | EC50 (TRPML3; fluorescent calcium assay) | EC50 (TRPML1; fluorescent calcium assay) | EC50 (TRPML2) | EC50 (TRPML3) | EC50 (TRPML1) | Compound
1 |  |  |  | 0.1 to 0.5 µM | < 0.1 µM | < 0.1 µM | C[C@H]1CN(c2ncnc3c2c(C(F)(F)F)cn3-c2cc(C#N)ccn2)[C@@H](C)CN1C(=O)OC(C)(C)C [Compound 502, tert-butyl (25,5S)-4-(7-(4-cyanopyridin-2-yl)-5-(trifluoromethyl)-7H-pyrrolo[2,3-d]pyrimidin-4-yl)-2,5-dimethylpiperazine-1-carboxylate]
2 |  |  |  | 0.1 to 0.5 µM | < 0.1 µM | < 0.1 µM | C[C@@H]1CN(c2ncnc3c2c(-c2ccccc2F)cn3-c2cc(C(F)(F)F)ccn2)[C@@H](C)CN1C(=O)OC1(C)CC1 [Compound 652, 1-methylcyclopropyl (2R,5S)-4-(5-(2-fluorophenyl)-7-(4-(trifluoromethyl)pyridin-2-yl)-7H-pyrrolo[2,3-d]pyrimidin-4-yl)-2,5-dimethylpiperazine-1-carboxylate]
3 |  |  |  | < 0.1 µM | < 0.1 µM | < 0.1 µM | C[C@@H]1CN(c2ncnc3c2c(C(F)F)cn3-c2cc(C#N)ccn2)CCN1C(=O)OC(C)(C)C [Compound 511, tert-butyl (R)-4-(7-(4-cyanopyridin-2-yl)-5-(difluoromethyl)-7H-pyrrolo[2,3-d]pyrimidin-4-yl)-2-methylpiperazine-1-carboxylate]
4 |  |  |  | 0.1 to 0.5 µM | < 0.1 µM | < 0.1 µM | C[C@@H]1CN(c2ncnc3c2c(CC(F)(F)F)cn3-c2cc(C#N)ncn2)[C@@H](C)CN1C(=O)OC(C)(C)C [Compound 618, tert-butyl (2R,5S)-4-(7-(6-cyanopyrimidin-4-yl)-5-(2,2,2-trifluoroethyl)-7H-pyrrolo[2,3-d]pyrimidin-4-yl)-2,5-dimethylpiperazine-1-carboxylate]
5 |  |  |  | 0.1 to 0.5 µM | < 0.1 µM | < 0.1 µM | CC(C)c1cn(-c2cc(F)ccn2)c2ncnc(N3C[C@@H](C)N(C(=O)OC(C)(C)C)C[C@@H]3C)c12 [Compound 698, tert-butyl (2R,5S)-4-(7-(4-fluoropyridin-2-yl)-5-isopropyl-7H-pyrrolo[2,3-d]pyrimidin-4-yl)-2,5-dimethylpiperazine-1-carboxylate]
6 |  |  |  | 0.1 to 0.5 µM | < 0.1 µM | < 0.1 µM | Cc1cn(-c2cc(F)cc(Cl)c2)c2ncnc(N3C[C@@H](C)N(C(=O)OC(C)(C)C)C[C@@H]3C)c12 [Compound 677, tert-butyl (2R,5S)-4-(7-(3-chloro-5-fluorophenyl)-5-methyl-7H-pyrrolo[2,3-d]pyrimidin-4-yl)-2,5-dimethylpiperazine-1-carboxylate]

The next lines start with the molecule.

Row | Compound | EC50 (TRPML2; fluorescent calcium assay) | EC50 (TRPML3; fluorescent calcium assay) | EC50 (TRPML1; fluorescent calcium assay) | EC50 (TRPML2) | EC50 (TRPML3) | EC50 (TRPML1)
7 | C[C@H]1CN(C(=O)OC(C)(C)C)CCN1c1ncnc2c1c(-c1ccccc1)cn2-c1cnn(C)c1 [Compound 170, tert-butyl (S)-3-methyl-4-(7-(1-methyl-1H-pyrazol-4-yl)-5-phenyl-7H-pyrrolo[2,3-d]pyrimidin-4-yl)piperazine-1-carboxylate] | 0.5 to 2 µM | < 0.1 µM | 0.1 to 0.5 µM |  |  | 
8 | COc1cncc(-n2cc(C3CC3)c3c(N4CCN(C(=O)OC(C)(C)C)C[C@@H]4C)ncnc32)c1 [Compound 106, tert-butyl (S)-4-(5-cyclopropyl-7-(5-methoxypyridin-3-yl)-7H-pyrrolo[2,3-d]pyrimidin-4-yl)-3-methylpiperazine-1-carboxylate] | 0.5 to 2 µM | 0.1 to 0.5 µM | 0.1 to 0.5 µM |  |  | 
9 | C[C@H]1CN(C(=O)OC(C)(C)C)CCN1c1ncnc2c1c(C1CC1)cn2-c1cccc(OC(F)(F)F)c1 [Compound 196, tert-butyl (S)-4-(5-cyclopropyl-7-(3-(trifluoromethoxy)phenyl)-7H-pyrrolo[2,3-d]pyrimidin-4-yl)-3-methylpiperazine-1-carboxylate] | 0.1 to 0.5 µM | < 0.1 µM | < 0.1 µM |  |  | 
10 | C[C@@H]1CN(c2ncnc3c2c(-c2ccccc2F)cn3-c2cnn(C)c2)[C@@H](C)CN1C(=O)OC(C)(C)C [Compound 176, tert-butyl (2R,5S)-4-(5-(2-fluorophenyl)-7-(1-methyl-1H-pyrazol-4-yl)-7H-pyrrolo[2,3-d]pyrimidin-4-yl)-2,5-dimethylpiperazine-1-carboxylate] | 0.5 to 2 µM | 0.1 to 0.5 µM | 0.1 to 0.5 µM |  |  | 
11 | C[C@H]1CN(C(=O)OC(C)(C)C)CCN1c1ncnc2c1c(C1CC1)cn2C1CC(C#N)C1 (stereo partly drawn) [Compound 414, tert-butyl (S)-4-(7-(3-cyanocyclobutyl)-5-cyclopropyl-7H-pyrrolo[2,3-d]pyrimidin-4-yl)-3-methylpiperazine-1-carboxylate] | > 2 µM | 0.5 to 2 µM | 0.5 to 2 µM |  |  | 
12 | Cc1nccnc1-c1cn(-c2ccccc2)c2ncnc(N3C[C@@H](C)N(C(=O)OC(C)(C)C)C[C@@H]3C)c12 [Compound 182, tert-butyl (2R,5S)-2,5-dimethyl-4-(5-(3-methylpyrazin-2-yl)-7-phenyl-7H-pyrrolo[2,3-d]pyrimidin-4-yl)piperazine-1-carboxylate] | > 2 µM | 0.5 to 2 µM | 0.5 to 2 µM |  |  | 
13 | CC(C)(C)OC(=O)N1CCN(c2ncnc3c2c(C2CC2)cn3-c2cc(C#N)ccn2)C2(CC2)C1 [Compound 429, tert-butyl 4-(7-(4-cyanopyridin-2-yl)-5-cyclopropyl-7H-pyrrolo[2,3-d]pyrimidin-4-yl)-4,7-diazaspiro[2.5]octane-7-carboxylate] | < 0.1 µM | < 0.1 µM | < 0.1 µM |  |  | 
14 | C[C@@H]1CN(c2ncnc3c2c(-c2cccnc2)cn3-c2cc(F)cc(Cl)c2)CCN1C(=O)OC(C)(C)C [Compound 222, tert-butyl (R)-4-(7-(3-chloro-5-fluorophenyl)-5-(pyridin-3-yl)-7H-pyrrolo[2,3-d]pyrimidin-4-yl)-2-methylpiperazine-1-carboxylate] | 0.5 to 2 µM | < 0.1 µM | < 0.1 µM |  |  | 
15 | Cc1nccnc1-c1cn(-c2cc(F)cc(F)c2)c2ncnc(N3CCN(C(=O)OC(C)C)[C@H](C)C3)c12 [Compound 251, isopropyl (R)-4-(7-(3,5-difluorophenyl)-5-(3-methylpyrazin-2-yl)-7H-pyrrolo[2,3-d]pyrimidin-4-yl)-2-methylpiperazine-1-carboxylate] | > 2 µM | 0.5 to 2 µM | > 2 µM |  |  | 
16 | CC1CN(C(=O)OC(C)(C)C)CCN1c1nccc2c1c(-c1ccccn1)cn2-c1cccc(Cl)c1 (stereo not drawn) [Compound 187, tert-butyl 4-(1-(3-chlorophenyl)-3-(pyridin-2-yl)-1H-pyrrolo[3,2-c]pyridin-4-yl)-3-methylpiperazine-1-carboxylate] | 0.1 to 0.5 µM | 0.1 to 0.5 µM | 0.1 to 0.5 µM |  |  | 
17 | C[C@H]1CN(C(=O)OC(C)(C)C(F)(F)F)CCN1c1ncnc2c1c(C1CC1)cn2-c1cccc(Cl)c1 [Compound 140, 1,1,1-trifluoro-2-methylpropan-2-yl (S)-4-(7-(3-chlorophenyl)-5-cyclopropyl-7H-pyrrolo[2,3-d]pyrimidin-4-yl)-3-methylpiperazine-1-carboxylate] | < 0.1 µM | < 0.1 µM | < 0.1 µM |  |  | 
18 | C[C@@H]1CN(c2ncnc3c2c(-n2cccn2)cn3-c2cccc(Cl)c2)CCN1C(=O)OC(C)(C)C [Compound 332, tert-butyl (R)-4-(7-(3-chlorophenyl)-5-(1H-pyrazol-1-yl)-7H-pyrrolo[2,3-d]pyrimidin-4-yl)-2-methylpiperazine-1-carboxylate] | 0.5 to 2 µM | < 0.1 µM | < 0.1 µM |  |  | 
